In ChEMBL document CHEMBL6109035, “Anticonvulsant effects of new coumarin-2,3-dimethylbutadiene Diels-Alder cycloadducts in the pentylenetetrazole-induced clonic seizures in mice” (Bioorg Med Chem Lett, 2025):

Tests used:
Mus musculus [1] = test: Antiseizure activity in PTZ-induced male CD-1 mouse clonic seizure model assessed as improvement in locomotor activity by measuring total events at 15 mg/kg, ip pretreated with compound followed by PTZ-induction by open field test; format: functional
Mus musculus [2] = test: Antiseizure activity in PTZ-induced male CD-1 mouse clonic seizure model assessed as improvement in locomotor activity by measuring fold change at 15 mg/kg, ip pretreated with compound followed by PTZ-induction by open field test; format: functional
Mus musculus [3] = test: Antiseizure activity in PTZ-induced male CD-1 mouse clonic seizure model assessed as increase in latency time at 15 mg/kg, ip pretreated with compound followed by PTZ-induction; format: functional
Mus musculus [4] = test: Antiseizure activity in PTZ-induced male CD-1 mouse clonic seizure model assessed as increase in latency time by measuring fold change at 15 mg/kg, ip pretreated with compound followed by PTZ-induction; format: functional
Mus musculus [5] = test: Antiseizure activity in PTZ-induced male CD-1 mouse clonic seizure model assessed as increase in latency time at 12 mg/kg, ip pretreated with compound followed by PTZ-induction; format: functional
Mus musculus [6] = test: Antiseizure activity in PTZ-induced male CD-1 mouse clonic seizure model assessed as improvement in locomotor activity by measuring fold change at 12 mg/kg, ip pretreated with compound followed by PTZ-induction; format: functional
Mus musculus [7] = test: Antiseizure activity in PTZ-induced male CD-1 mouse clonic seizure model assessed as improvement in locomotor activity by measuring total events at 12 mg/kg, ip pretreated with compound followed by PTZ-induction by open field test; format: functional
Mus musculus [8] = test: Antiseizure activity in PTZ-induced male CD-1 mouse clonic seizure model assessed as increase in latency time by measuring fold change at 12 mg/kg, ip pretreated with compound followed by PTZ-induction; format: functional
[9] = Toxicity in male CD-1 mouse assessed as piloerection at 12 to 13 mg/kg, ip; format: organism-based; conditions: in vivo, dose 12-13 mg/kg
[10] = Toxicity in male CD-1 mouse assessed as stimulation of appetite at 12 to 13 mg/kg, ip; format: organism-based; conditions: in vivo, dose 12-13 mg/kg
[11] = Toxicity in male CD-1 mouse assessed as sedation at 12 to 13 mg/kg, ip; format: organism-based; conditions: in vivo, dose 12-13 mg/kg
Mus musculus [12] = test: Antiseizure activity in PTZ-induced male CD-1 mouse clonic seizure model assessed as improvement in locomotor activity by measuring fold change at 13 mg/kg, ip pretreated with compound followed by PTZ-induction; format: functional
Mus musculus [13] = test: Antiseizure activity in PTZ-induced male CD-1 mouse clonic seizure model assessed as improvement in locomotor activity by measuring total events at 13 mg/kg, ip pretreated with compound followed by PTZ-induction by open field test; format: functional
Mus musculus [14] = test: Antiseizure activity in PTZ-induced male CD-1 mouse clonic seizure model assessed as increase in latency time by measuring fold change at 13 mg/kg, ip pretreated with compound followed by PTZ-induction; format: functional
Mus musculus [15] = test: Antiseizure activity in PTZ-induced male CD-1 mouse clonic seizure model assessed as increase in latency time at 13 mg/kg, ip pretreated with compound followed by PTZ-induction; format: functional

With `Cc1c(C(=O)c2cccc3ccccc23)c2cccc3c2n1C(CN1CCOCC1)CO3` (stereo not given) the Activity (Mus musculus [1]) was 3079, the “fold change (FC)” value (Mus musculus [2]) was 3 and the Time (Mus musculus [3]) was 279 s. The “fold change (FC)” value (Mus musculus [4]) was roughly 4.
With `CC1=C(C)C[C@]2(C(=O)c3ccccc3)C(=O)Oc3ccccc3[C@@H]2C1` the Time (Mus musculus [5]) was 264 s, the “fold change (FC)” value (Mus musculus [6]) was 2.4 and the Activity (Mus musculus [7]) was 2747. The “fold change (FC)” value (Mus musculus [8]) was roughly 4, the Activity [9] was “Toxic” and the Activity [10] was “Toxic”. For the same compound, the Activity [11] was “Toxic”.
In the case of `CC1=C(C)C[C@]2(C(=O)c3ccc(Cl)cc3)C(=O)Oc3ccccc3[C@@H]2C1`, the “fold change (FC)” value (Mus musculus [12]) is reported as 2.4, the Activity (Mus musculus [13]) is reported as 2790 and the “fold change (FC)” value (Mus musculus [14]) is reported as roughly 4. The Time (Mus musculus [15]) was 266 s, the Activity [9] was “Toxic” and the Activity [10] was “Toxic”. For the same compound, the Activity [11] was “Toxic”.
With `CC1=C(C)C[C@]2(C(=O)c3ccc(C)cc3)C(=O)Oc3ccccc3[C@@H]2C1` the Time (Mus musculus [5]) was 269 s, the “fold change (FC)” value (Mus musculus [6]) was 2.4 and the Activity (Mus musculus [7]) was 2876. The “fold change (FC)” value (Mus musculus [8]) was roughly 4, the Activity [9] was “Toxic” and the Activity [10] was “Toxic”. For the same compound, the Activity [11] was “Toxic”.
